Reference: article PMC12120625, “Cytotoxicity and Nanoassembly Characteristics of Aromatic Amides of Oleanolic Acid and Ursolic Acid” (ACS Omega, 2025)

Tests used:
G-361 = experiment: Cytotoxicity assay, resazurin, 72 h, G-361; format: cell-based; details: Homo sapiens, malignant melanoma
Experimental: (§1) The cytotoxicity screening tests were made with T-lymphoblastic leukemia (CCRF-CEM), breast adenocarcinoma (MCF7), cervical carcinoma (HeLa), and malignant melanoma (G-361) cancer cell lines (the European Collection of Authenticated Cell Cultures, Salisbury, U.K.). Human foreskin fibroblasts (BJ) were used as reference cells, and they were obtained from the American Type Culture Collection (ATCC, Manassas, Virginia). The cells were cultured in DMEM (Dulbecco’s modified Eagle’s medium) or RPMI 1640 (CCRF-CEM). Media used were supplemented with 10% fetal serum, L-glutamine (2 mM), and 1% penicillin–streptomycin mixture (all from Sigma-Aldrich). The cell lines were maintained under standard cell culture conditions at 37 °C and 5% CO2 in a humid environment. Cells were subcultured two or three times a week using the standard trypsinization procedure.
(§2) The cytotoxicity assays were performed according to the standard experimental procedure published earlier. The cell viability was measured after 72 h using resazurin (Sigma-Aldrich). Western blotting and caspase activity assay were performed as described earlier. ,

CCRF-CEM = experiment: Cytotoxicity assay, resazurin, 72 h, CCRF-CEM; format: cell-based; details: Homo sapiens, T-lymphoblastic leukemia
Experimental: as §1, §2

MCF7 = experiment: Cytotoxicity assay, resazurin, 72 h, MCF7; format: cell-based; details: Homo sapiens, breast adenocarcinoma
Experimental: as §1, §2

[1] = Cytotoxicity assay, resazurin, 72 h, normal fibroblasts BJ; format: cell-based; details: human, BJ normal foreskin fibroblasts, normal foreskin fibroblast
Experimental: as §1, §2

HeLa = experiment: Cytotoxicity assay, resazurin, 72 h, HeLa; format: cell-based; details: Homo sapiens, cervical cancer
Experimental: as §1, §2

[2] = Nanoassembly by UV spectroscopy and TEM in methanol and water; format: physicochemical; details: UV spectra and TEM
Experimental: UV spectra were measured on a Specord 210 spectrometer (Jena Analytical, Germany) in the wavelength range of 200–400 nm. The stock solutions of the studied compounds (9b, 13b, 16b, or 17b; 0.003 mmol) were prepared in methanol (2 mL) at a concentration of 1 mg·mL^–1. A series of water/methanol mixtures were then prepared starting from a water/methanol ratio of 0/100 up to 100/0 in 20% steps. The stock solutions of the studied compounds (0.15 mL) were added separately to each vial containing water/methanol mixtures (3 mL), and the UV spectra were recorded in the wavelength range of 200–400 nm. Aliquots of the stock solutions of the studied compounds (160 μL) were used to prepare samples in the given ratios of water/methanol (0:100 to 100:0 in the 20% steps) mixtures. The UV spectra were recorded in the time 0, 1, 2, 3, and 4 h, followed by a subsequent recording after each 24 h during 7 days (Supporting Information, Figure S33). Note: All target compounds were subjected to this type of investigation; however, self-assembly characteristics were detected by measuring the UV spectra only with 9b, 13b, 16b, and 17b.
Transmission electron microscopy (TEM) was performed with a Tecai G2 Spirit Twin 12 microscope (FEI, Brno, Czech Republic). The samples for TEM were prepared by the fast-drying method, both in methanol and in water. , The studied compounds (2 μL of each one) were dissolved in methanol, and if studies should have been made in water, the compounds were first dissolved in methanol, and then water was added to make the final methanol/water (1:10) solutions. The solutions of compounds in either solvent were made to get the final concentrations of c = 10 mg·mL^–1. Then the solutions were dropped onto a standard carbon-coated copper TEM grid (300 mesh). After 2 min, the rest of the solution was removed by touching the bottom of the grid with a thin strip of filter paper. This fast removal of the solvent, also referred to as “fast-drying” above, is necessary to minimize drying artifacts, as documented in previous studies. , The fast-dried specimens were left to dry completely at an ambient temperature. […] The morphology of selected samples was verified by additional TEM experiments, which employed the samples that were negatively stained with uranyl acetate (UO2Ac2). The negative staining was performed as follows: A small volume (2 μL) of UO2Ac2 (2 wt % of aqueous solution) was dropped on the selected dried specimens from the previous step (i.e., on the dried specimens on the carbon-coated TEM grids). After 1 min, the excess of UO2Ac2 solution was removed (by touching the bottom of the grid with filter paper, like in the previous step). […]

[3] = Solubility in methanol and water; format: physicochemical

CC(=O)O[C@H]1CC[C@]2(C)[C@H]3CC=C4[C@@H]5[C@@H](C)[C@H](C)CC[C@]5(C(=O)NCC(=O)O)CC[C@@]4(C)[C@]3(C)CC[C@H]2C1(C)C [Compound 3b]
IC50 (G-361): 38.7 ± 4.9 µM
IC50 (CCRF-CEM): 43.3 ± 5.4 µM
IC50 (MCF7): 49.7 ± 0.5 µM
IC50 at 72 h [1]: > 50 µM

CC(=O)O[C@H]1CC[C@]2(C)[C@H]3CC=C4[C@@H]5CC(C)(C)CC[C@]5(C(=O)NCC(=O)Nc5cccc(N)c5)CC[C@@]4(C)[C@]3(C)CC[C@H]2C1(C)C [Compound 11a]
IC50 (G-361): 38.6 ± 1.3 µM
IC50 (CCRF-CEM): > 50 µM
IC50 (MCF7): 39.5 ± 1.5 µM
IC50 at 72 h [1]: > 50 µM
IC50 (HeLa): 41.9 ± 4.7 µM

CC1(C)CC[C@]2(C(=O)NCC(=O)Nc3cccc(N)c3)CC[C@]3(C)C(=CC[C@@H]4[C@@]5(C)CC[C@H](O)C(C)(C)[C@@H]5CC[C@]43C)[C@@H]2C1 [Compound 13a]
IC50 (G-361): 19.5 ± 2.1 µM
nanoassembly [2]: showed no nanoassembly
IC50 (CCRF-CEM): 29.4 ± 4.4 µM
IC50 (MCF7): 14.2 ± 1.3 µM
IC50 at 72 h [1]: 45.7 ± 2.2 µM
IC50 (HeLa): 19.9 ± 1 µM

C[C@H]1[C@H](C)CC[C@]2(C(=O)O)CC[C@]3(C)C(=CC[C@@H]4[C@@]5(C)CC[C@H](O)C(C)(C)[C@@H]5CC[C@]43C)[C@H]12 [Compound 1b, (3β)-3-hydroxy-urs-12-en-28-oic-acid, reference compound]
IC50 (G-361): 9.7 ± 0.3 µM
IC50 (CCRF-CEM): 13.2 ± 2.7 µM
IC50 (MCF7): 16.2 ± 0.5 µM
IC50 at 72 h [1]: 15.6 ± 0.6 µM
IC50 (HeLa): 12.6 ± 2.7 µM

C[C@H]1[C@H](C)CC[C@]2(C(=O)NCC(=O)Nc3cccc(N)c3)CC[C@]3(C)C(=CC[C@@H]4[C@@]5(C)CC[C@H](O)C(C)(C)[C@@H]5CC[C@]43C)[C@H]12 [Compound 13b]
IC50 (G-361): 14.4 ± 2.9 µM
nanoassembly [2]: displayed nanoassembly in methanol and water
IC50 (CCRF-CEM): 22.3 ± 2.3 µM
IC50 (MCF7): 12.8 ± 2.5 µM
IC50 at 72 h [1]: 38.5 ± 0.8 µM
IC50 (HeLa): 26.7 ± 2.7 µM
solubility [3]: soluble both in methanol and in water

CC(=O)O[C@H]1CC[C@]2(C)[C@H]3CC=C4[C@@H]5[C@@H](C)[C@H](C)CC[C@]5(C(=O)NCC(=O)Nc5cccc(N)c5)CC[C@@]4(C)[C@]3(C)CC[C@H]2C1(C)C [Compound 11b]
IC50 (G-361): 15 ± 0.8 µM
IC50 (CCRF-CEM): 32.6 ± 8.7 µM
IC50 (MCF7): 15.8 ± 3.2 µM
IC50 at 72 h [1]: 44.8 ± 0.6 µM
IC50 (HeLa): 14.6 ± 2.7 µM

CC1(C)CC[C@]2(C(=O)NCC(=O)Nc3ccc(N)cc3)CC[C@]3(C)C(=CC[C@@H]4[C@@]5(C)CC[C@H](O)C(C)(C)[C@@H]5CC[C@]43C)[C@@H]2C1 [Compound 9a]
IC50 (G-361): 18.6 ± 2.3 µM
nanoassembly [2]: showed no nanoassembly
IC50 (CCRF-CEM): 31.7 ± 2.3 µM
IC50 (MCF7): 17 ± 2.1 µM
IC50 at 72 h [1]: 37.9 ± 6.1 µM
IC50 (HeLa): 28.7 ± 1.8 µM

CC1(C)CC[C@]2(C(=O)NCC(=O)Nc3cc4cccnc4c4ncccc34)CC[C@]3(C)C(=CC[C@@H]4[C@@]5(C)CC[C@H](O)C(C)(C)[C@@H]5CC[C@]43C)[C@@H]2C1 [Compound 5a]
IC50 (G-361): 0.5 ± 0.1 µM
IC50 (CCRF-CEM): 0.3 ± 0.1 µM
IC50 (MCF7): 0.4 ± 0.1 µM
IC50 at 72 h [1]: 1.5 ± 0.1 µM
IC50 (HeLa): 0.6 ± 0.2 µM

CC(=O)O[C@H]1CC[C@]2(C)[C@H]3CC=C4[C@@H]5[C@@H](C)[C@H](C)CC[C@]5(C(=O)NCC(=O)Nc5ccc(N)cc5)CC[C@@]4(C)[C@]3(C)CC[C@H]2C1(C)C [Compound 7b]
IC50 (G-361): 11.2 ± 0.4 µM
IC50 (CCRF-CEM): 18.1 ± 0.4 µM
IC50 (MCF7): 14.9 ± 2.2 µM
IC50 at 72 h [1]: 36.1 ± 4.5 µM
IC50 (HeLa): 12.5 ± 2.3 µM

C[C@H]1[C@H](C)CC[C@]2(C(=O)NCC(=O)Nc3ccc(N)cc3)CC[C@]3(C)C(=CC[C@@H]4[C@@]5(C)CC[C@H](O)C(C)(C)[C@@H]5CC[C@]43C)[C@H]12 [Compound 9b]
IC50 (G-361): 23.3 ± 1 µM
nanoassembly [2]: displayed nanoassembly in methanol and water
IC50 (CCRF-CEM): 25.8 ± 0.4 µM
IC50 (MCF7): 16.4 ± 3.7 µM
IC50 at 72 h [1]: 35.2 ± 1.3 µM
IC50 (HeLa): 30 ± 2.8 µM
solubility [3]: soluble both in methanol and in water

CC(=O)O[C@H]1CC[C@]2(C)[C@H]3CC=C4[C@@H]5CC(C)(C)CC[C@]5(C(=O)NCC(=O)Nc5cc6cccnc6c6ncccc56)CC[C@@]4(C)[C@]3(C)CC[C@H]2C1(C)C [Compound 4a]
IC50 (G-361): 0.4 µM
IC50 (CCRF-CEM): 0.6 ± 0.1 µM
IC50 (MCF7): 0.7 ± 0.1 µM
IC50 at 72 h [1]: 0.8 ± 0.1 µM
IC50 (HeLa): 0.3 µM

CC1(C)CC[C@]2(C(=O)O)CC[C@]3(C)C(=CC[C@@H]4[C@@]5(C)CC[C@H](O)C(C)(C)[C@@H]5CC[C@]43C)[C@@H]2C1 [Compound 1a, (3β)-3-hydroxyolean-12-en-28-oic-acid, reference compound]
IC50 (G-361): > 50 µM
IC50 (CCRF-CEM): > 50 µM
IC50 (MCF7): > 50 µM
IC50 at 72 h [1]: > 50 µM
IC50 (HeLa): > 50 µM

CC(=O)O[C@H]1CC[C@]2(C)[C@H]3CC=C4[C@@H]5CC(C)(C)CC[C@]5(C(=O)NCC(=O)O)CC[C@@]4(C)[C@]3(C)CC[C@H]2C1(C)C [Compound 3a]
IC50 (G-361): 43.1 ± 1.1 µM
IC50 (CCRF-CEM): 41 ± 5.9 µM
IC50 (MCF7): 46.9 ± 4.4 µM
IC50 at 72 h [1]: > 50 µM
IC50 (HeLa): 35.8 ± 3.4 µM

C[C@H]1[C@H](C)CC[C@]2(C(=O)NCC(=O)Nc3cc4cccnc4c4ncccc34)CC[C@]3(C)C(=CC[C@@H]4[C@@]5(C)CC[C@H](O)C(C)(C)[C@@H]5CC[C@]43C)[C@H]12 [Compound 5b]
IC50 (G-361): 0.5 ± 0.1 µM
IC50 (CCRF-CEM): 0.6 ± 0.1 µM
IC50 (MCF7): 0.5 µM
IC50 at 72 h [1]: 1.6 ± 0.1 µM
IC50 (HeLa): 0.6 ± 0.1 µM

CC(=O)O[C@H]1CC[C@]2(C)[C@H]3CC=C4[C@@H]5[C@@H](C)[C@H](C)CC[C@]5(C(=O)NCC(=O)Nc5cc6cccnc6c6ncccc56)CC[C@@]4(C)[C@]3(C)CC[C@H]2C1(C)C [Compound 4b]
IC50 (G-361): 0.5 ± 0.1 µM
IC50 (CCRF-CEM): 0.6 ± 0.2 µM
IC50 (MCF7): 0.9 ± 0.3 µM
IC50 at 72 h [1]: 1.5 ± 0.5 µM
IC50 (HeLa): 0.4 ± 0.1 µM

CC(=O)O[C@H]1CC[C@]2(C)[C@H]3CC=C4[C@@H]5CC(C)(C)CC[C@]5(C(=O)NCC(=O)Nc5ccc(N)cc5)CC[C@@]4(C)[C@]3(C)CC[C@H]2C1(C)C [Compound 7a]
IC50 (G-361): 8.5 ± 0.1 µM
IC50 (CCRF-CEM): 17.1 ± 1.9 µM
IC50 (MCF7): 12 ± 2.5 µM
IC50 at 72 h [1]: 18.5 ± 2.6 µM
IC50 (HeLa): 10.9 ± 1.9 µM
